Legend:
Assay in all cases: Kinobeads competition binding, HeLa Placenta lysate mix
Design in all cases: endogenous in cells
Conditions in all cases: 10 μM free compound
AurA = molecular target: T1, AurA (Homo sapiens, UniProt O14965)
T1 sequence (O14965 1-403): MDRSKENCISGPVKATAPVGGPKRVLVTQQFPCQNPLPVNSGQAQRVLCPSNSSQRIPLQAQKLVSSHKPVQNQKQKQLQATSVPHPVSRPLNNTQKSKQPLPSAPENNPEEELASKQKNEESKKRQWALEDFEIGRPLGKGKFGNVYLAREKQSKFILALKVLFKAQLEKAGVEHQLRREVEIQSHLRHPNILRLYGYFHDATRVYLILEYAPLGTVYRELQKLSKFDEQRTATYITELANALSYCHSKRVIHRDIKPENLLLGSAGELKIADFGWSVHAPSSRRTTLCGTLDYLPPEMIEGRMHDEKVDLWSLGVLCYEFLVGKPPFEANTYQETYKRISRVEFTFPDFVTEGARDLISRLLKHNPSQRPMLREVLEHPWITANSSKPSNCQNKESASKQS
In short: (§1)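 Competition pulldown: free compound at 10 μM competes with an immobilized-compound affinity matrix for lysate proteins. Captured proteins undergo SDS-PAGE and in-gel tryptic digestion, then iTRAQ-labeled LC-MS/MS quantification relative to a DMSO-treated aliquot.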

CK2a1 = CK2a1 (Homo sapiens, UniProt P68400)
In short: as §1

CaMKK2 = CaMKK2 (Homo sapiens, UniProt Q96RR4)
In short: as §1

DNAPK = DNAPK (Homo sapiens, UniProt P78527)
In short: as §1

Erk1 = Erk1 (Homo sapiens, UniProt P27361)
In short: as §1

GSK3A = GSK3A (Homo sapiens, UniProt P49840)
Chain of GSK3A (P49840 whole entry): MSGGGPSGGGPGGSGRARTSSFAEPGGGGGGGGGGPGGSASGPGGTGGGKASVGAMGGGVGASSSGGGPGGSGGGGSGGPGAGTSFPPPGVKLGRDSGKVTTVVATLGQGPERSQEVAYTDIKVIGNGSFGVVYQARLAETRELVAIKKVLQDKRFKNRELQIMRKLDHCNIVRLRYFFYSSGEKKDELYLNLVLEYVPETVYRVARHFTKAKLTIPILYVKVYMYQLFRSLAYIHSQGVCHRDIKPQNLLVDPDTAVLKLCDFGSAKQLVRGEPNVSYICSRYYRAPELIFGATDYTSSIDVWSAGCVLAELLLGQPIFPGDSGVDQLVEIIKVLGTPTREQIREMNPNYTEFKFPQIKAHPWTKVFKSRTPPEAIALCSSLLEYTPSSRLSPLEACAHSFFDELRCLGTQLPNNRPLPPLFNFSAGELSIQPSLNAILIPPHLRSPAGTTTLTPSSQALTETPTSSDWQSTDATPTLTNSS
In short: as §1

GSK3B = GSK3B (Homo sapiens, UniProt P49841)
In short: as §1

IRAK3 = IRAK3 (Homo sapiens, UniProt Q9Y616)
Chain of IRAK3 (Q9Y616 whole entry): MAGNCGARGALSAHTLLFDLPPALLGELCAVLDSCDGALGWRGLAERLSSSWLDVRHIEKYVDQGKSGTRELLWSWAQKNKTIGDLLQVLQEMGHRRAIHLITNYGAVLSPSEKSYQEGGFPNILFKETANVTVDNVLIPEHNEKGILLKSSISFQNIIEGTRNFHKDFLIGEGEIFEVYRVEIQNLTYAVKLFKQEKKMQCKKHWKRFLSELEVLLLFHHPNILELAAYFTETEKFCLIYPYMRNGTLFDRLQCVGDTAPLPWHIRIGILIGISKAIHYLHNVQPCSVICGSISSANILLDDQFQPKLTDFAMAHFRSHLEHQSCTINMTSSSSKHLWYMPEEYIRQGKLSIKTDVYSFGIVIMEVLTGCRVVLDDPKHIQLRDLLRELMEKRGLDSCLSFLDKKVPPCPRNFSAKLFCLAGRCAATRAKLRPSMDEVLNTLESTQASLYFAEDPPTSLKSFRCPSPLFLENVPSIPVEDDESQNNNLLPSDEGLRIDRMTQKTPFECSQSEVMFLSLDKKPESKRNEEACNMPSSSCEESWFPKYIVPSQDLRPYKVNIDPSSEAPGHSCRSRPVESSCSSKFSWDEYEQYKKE
In short: as §1

JAK1 = JAK1 (Homo sapiens, UniProt P23458)
Chain of JAK1 (P23458 whole entry): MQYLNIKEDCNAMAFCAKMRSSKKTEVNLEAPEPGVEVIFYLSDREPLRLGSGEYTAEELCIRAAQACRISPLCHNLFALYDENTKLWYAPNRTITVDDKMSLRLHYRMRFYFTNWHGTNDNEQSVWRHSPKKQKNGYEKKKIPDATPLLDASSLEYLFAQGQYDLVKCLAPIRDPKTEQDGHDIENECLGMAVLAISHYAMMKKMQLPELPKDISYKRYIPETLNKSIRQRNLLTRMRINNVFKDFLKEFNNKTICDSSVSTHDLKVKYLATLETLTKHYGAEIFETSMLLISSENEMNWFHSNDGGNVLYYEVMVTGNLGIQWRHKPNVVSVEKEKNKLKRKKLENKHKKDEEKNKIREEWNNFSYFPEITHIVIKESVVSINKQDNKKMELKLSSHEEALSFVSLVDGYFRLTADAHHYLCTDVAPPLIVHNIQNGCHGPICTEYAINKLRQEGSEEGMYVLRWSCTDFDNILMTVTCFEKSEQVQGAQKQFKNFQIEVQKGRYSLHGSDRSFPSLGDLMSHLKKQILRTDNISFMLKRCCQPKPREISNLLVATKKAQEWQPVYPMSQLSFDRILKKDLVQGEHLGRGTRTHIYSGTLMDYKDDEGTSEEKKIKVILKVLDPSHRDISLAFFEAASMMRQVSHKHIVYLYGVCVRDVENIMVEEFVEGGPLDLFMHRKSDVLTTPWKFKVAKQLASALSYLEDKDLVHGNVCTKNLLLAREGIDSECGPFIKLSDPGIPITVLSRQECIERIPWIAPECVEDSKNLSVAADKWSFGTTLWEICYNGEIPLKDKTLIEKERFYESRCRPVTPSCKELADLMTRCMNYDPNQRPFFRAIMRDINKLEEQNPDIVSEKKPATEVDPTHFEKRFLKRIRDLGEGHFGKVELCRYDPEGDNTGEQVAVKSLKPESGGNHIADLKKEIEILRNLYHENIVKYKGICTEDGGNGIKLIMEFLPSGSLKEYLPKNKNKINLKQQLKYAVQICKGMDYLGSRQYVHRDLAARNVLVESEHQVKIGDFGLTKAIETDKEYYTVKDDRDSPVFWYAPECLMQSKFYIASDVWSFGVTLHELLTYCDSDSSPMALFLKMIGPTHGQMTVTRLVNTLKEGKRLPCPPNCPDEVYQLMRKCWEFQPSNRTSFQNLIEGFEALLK
In short: as §1

LRRK2 = LRRK2 (Homo sapiens, UniProt Q5S007)
Chain of LRRK2 (Q5S007 whole entry): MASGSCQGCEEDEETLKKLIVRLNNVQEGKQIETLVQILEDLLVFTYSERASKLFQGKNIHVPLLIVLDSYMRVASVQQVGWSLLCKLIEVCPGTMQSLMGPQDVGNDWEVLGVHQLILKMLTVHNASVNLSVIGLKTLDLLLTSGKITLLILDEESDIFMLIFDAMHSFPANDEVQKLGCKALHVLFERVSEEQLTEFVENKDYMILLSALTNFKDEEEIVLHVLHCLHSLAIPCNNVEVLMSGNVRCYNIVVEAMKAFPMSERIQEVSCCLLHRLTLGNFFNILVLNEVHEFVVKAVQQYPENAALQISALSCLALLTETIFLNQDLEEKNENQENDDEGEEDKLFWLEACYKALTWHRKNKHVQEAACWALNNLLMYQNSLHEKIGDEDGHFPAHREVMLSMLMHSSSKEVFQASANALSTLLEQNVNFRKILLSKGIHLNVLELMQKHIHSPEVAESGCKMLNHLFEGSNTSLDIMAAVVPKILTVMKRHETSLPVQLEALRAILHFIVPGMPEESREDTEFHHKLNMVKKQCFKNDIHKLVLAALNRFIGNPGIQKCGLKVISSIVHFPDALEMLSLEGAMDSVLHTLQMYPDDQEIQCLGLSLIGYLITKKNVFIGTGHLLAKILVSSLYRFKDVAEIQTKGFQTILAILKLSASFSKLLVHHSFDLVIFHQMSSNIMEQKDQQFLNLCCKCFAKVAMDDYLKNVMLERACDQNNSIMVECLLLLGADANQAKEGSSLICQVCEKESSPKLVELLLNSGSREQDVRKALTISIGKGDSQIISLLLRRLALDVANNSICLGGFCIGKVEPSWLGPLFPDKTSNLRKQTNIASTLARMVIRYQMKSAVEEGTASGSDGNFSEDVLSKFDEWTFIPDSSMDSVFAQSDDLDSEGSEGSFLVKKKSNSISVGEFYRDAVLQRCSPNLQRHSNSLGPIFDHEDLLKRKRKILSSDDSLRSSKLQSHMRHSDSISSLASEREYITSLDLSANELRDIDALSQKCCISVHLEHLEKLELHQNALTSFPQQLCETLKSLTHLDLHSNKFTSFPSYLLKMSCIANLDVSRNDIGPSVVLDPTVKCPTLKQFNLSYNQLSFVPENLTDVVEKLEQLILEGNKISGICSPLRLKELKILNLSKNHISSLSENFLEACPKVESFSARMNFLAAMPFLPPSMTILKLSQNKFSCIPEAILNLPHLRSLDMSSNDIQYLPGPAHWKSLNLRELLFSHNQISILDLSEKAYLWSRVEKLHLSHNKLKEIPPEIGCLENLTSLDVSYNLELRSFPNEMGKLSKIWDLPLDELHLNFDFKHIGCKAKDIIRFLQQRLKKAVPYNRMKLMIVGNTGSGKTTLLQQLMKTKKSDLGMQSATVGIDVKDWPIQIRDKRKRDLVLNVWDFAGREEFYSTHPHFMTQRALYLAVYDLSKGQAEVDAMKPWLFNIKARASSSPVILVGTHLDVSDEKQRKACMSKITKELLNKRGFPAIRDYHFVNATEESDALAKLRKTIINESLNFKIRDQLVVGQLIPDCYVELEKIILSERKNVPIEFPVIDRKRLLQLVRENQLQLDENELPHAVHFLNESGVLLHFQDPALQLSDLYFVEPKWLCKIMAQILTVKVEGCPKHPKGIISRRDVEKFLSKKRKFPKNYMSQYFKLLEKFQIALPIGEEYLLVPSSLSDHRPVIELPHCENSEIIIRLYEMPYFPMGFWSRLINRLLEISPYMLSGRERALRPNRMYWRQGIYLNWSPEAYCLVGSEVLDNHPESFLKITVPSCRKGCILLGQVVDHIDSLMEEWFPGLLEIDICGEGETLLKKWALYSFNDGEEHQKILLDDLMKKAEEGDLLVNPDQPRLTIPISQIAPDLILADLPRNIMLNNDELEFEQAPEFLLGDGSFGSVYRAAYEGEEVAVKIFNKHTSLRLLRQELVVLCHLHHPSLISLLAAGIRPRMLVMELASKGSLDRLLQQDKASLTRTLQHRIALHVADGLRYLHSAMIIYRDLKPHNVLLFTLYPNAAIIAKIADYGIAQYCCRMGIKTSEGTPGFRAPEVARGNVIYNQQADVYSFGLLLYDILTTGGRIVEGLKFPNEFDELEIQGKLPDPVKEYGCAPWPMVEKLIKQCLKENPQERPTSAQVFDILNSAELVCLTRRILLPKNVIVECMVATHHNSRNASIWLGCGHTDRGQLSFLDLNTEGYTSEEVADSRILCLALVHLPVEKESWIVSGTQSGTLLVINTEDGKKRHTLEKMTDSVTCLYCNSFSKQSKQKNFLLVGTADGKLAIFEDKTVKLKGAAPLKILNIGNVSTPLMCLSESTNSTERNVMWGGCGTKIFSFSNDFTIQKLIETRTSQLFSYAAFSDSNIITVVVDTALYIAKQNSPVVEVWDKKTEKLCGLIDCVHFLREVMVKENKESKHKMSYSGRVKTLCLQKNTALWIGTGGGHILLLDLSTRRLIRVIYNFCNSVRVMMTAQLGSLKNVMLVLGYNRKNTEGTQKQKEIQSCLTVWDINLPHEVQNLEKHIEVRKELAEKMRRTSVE
In short: as §1

MAP2K6 = MAP2K6 (Homo sapiens, UniProt P52564)
Chain of MAP2K6 (P52564 whole entry): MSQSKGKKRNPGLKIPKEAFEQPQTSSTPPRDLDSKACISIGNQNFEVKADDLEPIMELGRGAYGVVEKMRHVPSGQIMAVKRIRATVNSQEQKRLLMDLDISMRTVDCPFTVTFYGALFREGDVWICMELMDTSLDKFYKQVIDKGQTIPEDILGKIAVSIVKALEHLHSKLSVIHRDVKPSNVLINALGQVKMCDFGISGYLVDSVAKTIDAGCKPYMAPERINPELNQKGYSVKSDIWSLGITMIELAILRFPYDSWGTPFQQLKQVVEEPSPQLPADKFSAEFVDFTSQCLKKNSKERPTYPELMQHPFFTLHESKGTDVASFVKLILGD
In short: as §1

MAP3K4 = MAP3K4 (Homo sapiens, UniProt Q9Y6R4)
In short: as §1

NEK3 = molecular target: T2, NEK3 (Homo sapiens, UniProt P51956)
T2 sequence (P51956 1-506): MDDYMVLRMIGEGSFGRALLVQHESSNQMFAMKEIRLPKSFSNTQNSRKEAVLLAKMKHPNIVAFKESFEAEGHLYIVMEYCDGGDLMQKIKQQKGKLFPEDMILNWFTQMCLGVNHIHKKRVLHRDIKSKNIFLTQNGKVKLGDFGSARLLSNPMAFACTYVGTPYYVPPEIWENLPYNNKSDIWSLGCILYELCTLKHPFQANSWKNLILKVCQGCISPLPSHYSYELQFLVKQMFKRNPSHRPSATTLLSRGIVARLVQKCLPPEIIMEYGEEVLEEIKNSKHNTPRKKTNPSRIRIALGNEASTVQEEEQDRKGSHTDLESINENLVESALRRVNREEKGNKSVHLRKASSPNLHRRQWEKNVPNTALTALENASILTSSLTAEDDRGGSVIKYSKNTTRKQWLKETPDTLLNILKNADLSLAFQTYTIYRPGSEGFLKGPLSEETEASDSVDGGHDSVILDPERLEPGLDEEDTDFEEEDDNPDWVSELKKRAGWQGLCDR
In short: as §1

PAK4 = PAK4 (Homo sapiens, UniProt O96013)
In short: as §1

PIP5K2A = molecular target: T3, PIP5K2A (Homo sapiens, UniProt P48426)
T3 sequence (P48426 1-406): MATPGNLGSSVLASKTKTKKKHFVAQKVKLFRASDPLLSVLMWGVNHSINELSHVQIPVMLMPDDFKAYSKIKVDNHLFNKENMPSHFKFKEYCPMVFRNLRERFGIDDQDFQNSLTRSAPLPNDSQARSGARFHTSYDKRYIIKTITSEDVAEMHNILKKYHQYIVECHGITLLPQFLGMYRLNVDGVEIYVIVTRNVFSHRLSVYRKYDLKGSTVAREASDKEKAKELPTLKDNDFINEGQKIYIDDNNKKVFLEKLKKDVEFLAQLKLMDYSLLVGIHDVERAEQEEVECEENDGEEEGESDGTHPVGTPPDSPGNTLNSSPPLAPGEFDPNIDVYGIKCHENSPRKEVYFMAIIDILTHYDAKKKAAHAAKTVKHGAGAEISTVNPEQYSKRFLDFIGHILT
In short: as §1

RIPK2 = RIPK2 (Homo sapiens, UniProt O43353)
In short: as §1

- inhibition at 10 µM (AurA): 94%
- inhibition at 10 µM (CK2a1): 94.6%
- inhibition at 10 µM (CaMKK2): 94.3%
- inhibition at 10 µM (DNAPK): 69.2%
- inhibition at 10 µM (Erk1): 77.8%
- inhibition at 10 µM (GSK3A): 93.7%
- inhibition at 10 µM (GSK3B): 93.3%
- inhibition at 10 µM (IRAK3): 92%
- Competition % (JAK1): 95%
- inhibition at 10 µM (LRRK2): 85.2%
- inhibition at 10 µM (MAP2K6): 89.2%
- inhibition at 10 µM (MAP3K4): 92.2%
- inhibition at 10 µM (NEK3): 94.8%
- inhibition at 10 µM (PAK4): 94.2%
- inhibition at 10 µM (PIP5K2A): 95%
- inhibition at 10 µM (RIPK2): 92.2%
SMILES: CS(=O)(=O)Nc1ccccc1Nc1nc(Nc2cccc(OCCN)c2)ncc1Cl [CZC31326, N-(2-(2-(3-(2-aminoethoxy)phenylamino)-5-chloropyrimidin-4-ylamino)phenyl)methanesulfonamide]

Reference: patent US20120270237A9, “METHODS FOR THE IDENTIFICATION OF KINASE INTERACTING MOLECULES AND FOR THE PURIFICATION OF KINASE PROTEINS” (Cellzone AG, priority 2009, published 2012)
